Data: patent publication EP0327492A1, “Herbicidally and plantgrowth regulatory active quinoline and pyrindine compounds” (CIBA-GEIGY AG, priority 1988, dated 1989)

Key:
Format in all cases: in vivo
Chenopodium Sp. [1] = assay: Pre-emergent herbicidal action (B.2); conditions: 500 bis 2000 [g/ha], evaluated after 3 weeks
Protocol: (§1) Im Gewächshaus wird unmittelbar nach der Einsaat der Versuchspflanzen in Saatschalen die Erdoberfläche mit einer wässrigen Dispersion der Wirkstoffe, erhalten aus einem 25 %igen Emulsionskonzentrat behandelt. Es werden Konzentrationen von 2000-500 g Wirksubstanz/Hektar angewendet. Die Saatschalen werden im Gewächshaus bei 22-25° C und 50-70 % relativer Luftfeuchtigkeit gehalten und der Versuch nach 3 Wochen ausgewertet und die Resultate nach folgender Notenskala ausgewertet. • 1 Pflanze hat nicht gekeimt oder ist eingegangen • 2-3 sehr starke Schäden • 4 starke Schäden • 5 mittlere Schäden, die Pflanzen sind verkümmert • 6 Schäden, die Pflanze kann regenerieren • 7-8 leichte Schäden • 9 normales Wachstum, wie das unbehandelter Pflanzen
(§2) Boniturnoten von 1 bis 4 (insbesondere von 1 bis 3) weisen auf eine gute bis sehr gute Herbizidwirkung hin. Boniturnoten von 6 bis 9 (insbesondere 7 bis 9) weisen auf eine gute Toleranz (insbesondere bei Kulturpflanzen) hin.

Digitaria sang. [2] = assay: Pre-emergent herbicidal action (B.2); conditions: 500 bis 2000 [g/ha], evaluated after 3 weeks
Protocol: as §1, §2

Sinapis [3] = assay: Pre-emergent herbicidal action (B.2); conditions: 500 bis 2000 [g/ha], evaluated after 3 weeks
Protocol: as §1, §2

Ipomoea = assay: Pre-emergent herbicidal action (B.2); conditions: 500 bis 2000 [g/ha], evaluated after 3 weeks
Protocol: as §1, §2

Veronica Sp. [4] = assay: Pre-emergent herbicidal action (B.2); conditions: 500 bis 2000 [g/ha], evaluated after 3 weeks
Protocol: as §1, §2

Avena fatua [5] = assay: Pre-emergent herbicidal action (B.2); conditions: 500 bis 2000 [g/ha], evaluated after 3 weeks
Protocol: as §1, §2

Chrysanthe. leuc. [6] = assay: Pre-emergent herbicidal action (B.2); conditions: 500 bis 2000 [g/ha], evaluated after 3 weeks
Protocol: as §1, §2

Solanum nigrum [7] = assay: Pre-emergent herbicidal action (B.2); conditions: 500 bis 2000 [g/ha], evaluated after 3 weeks
Protocol: as §1, §2

Echinochloa crus galli [8] = assay: Pre-emergent herbicidal action (B.2); conditions: 500 bis 2000 [g/ha], evaluated after 3 weeks
Protocol: as §1, §2

Stellaria [9] = assay: Pre-emergent herbicidal action (B.2); conditions: 500 bis 2000 [g/ha], evaluated after 3 weeks
Protocol: as §1, §2

Lolium perenne [10] = assay: Pre-emergent herbicidal action (B.2); conditions: 500 bis 2000 [g/ha], evaluated after 3 weeks
Protocol: as §1, §2

Galium aparine [11] = assay: Pre-emergent herbicidal action (B.2); conditions: 500 bis 2000 [g/ha], evaluated after 3 weeks
Protocol: as §1, §2

Abutilon [12] = assay: Pre-emergent herbicidal action (B.2); conditions: 500 bis 2000 [g/ha], evaluated after 3 weeks
Protocol: as §1, §2

Alopecurus myos. [13] = assay: Pre-emergent herbicidal action (B.2); conditions: 500 bis 2000 [g/ha], evaluated after 3 weeks
Protocol: as §1, §2

Sorghum halep. [14] = assay: Pre-emergent herbicidal action (B.2); conditions: 500 bis 2000 [g/ha], evaluated after 3 weeks
Protocol: as §1, §2

Amaranthus ret. [15] = assay: Pre-emergent herbicidal action (B.2); conditions: 500 bis 2000 [g/ha], evaluated after 3 weeks
Protocol: as §1, §2

Bromus tectorum [16] = assay: Pre-emergent herbicidal action (B.2); conditions: 500 bis 2000 [g/ha], evaluated after 3 weeks
Protocol: as §1, §2

Chenopodium Sp. [17] = assay: Post-emergent herbicidal action, contact herbicide (B.3); conditions: 500 bis 2000 [g/ha], 15 days after treatment
Protocol: as §1, §2
(§3) Eine Anzahl Unkräuter, sowohl monokotyle wie dikotyle, werden nach dem Auflaufen (im 4- bis 6-Blattstadium) mit einer wässrigen Wirkstoffdispersion in einer Dosierung von 2000-500 g Wirksubstanz pro Hektar auf die Pflanzen gespritzt und diese bei 24°-26°C und 45-60 % relativer Luftfeuchtigkeit gehalten. 15 Tage nach der Behandlung wird der Versuch nach dem in Beispiel B.2. gegebenen Massstab bewertet.

Digitaria sang. [18] = assay: as above; conditions: 500 bis 2000 [g/ha], 15 days after treatment
Protocol: as §1, §2, §3

Sinapis [19] = assay: as above; conditions: 500 bis 2000 [g/ha], 15 days after treatment
Protocol: as §1, §2, §3

Veronica Sp. [20] = assay: as above; conditions: 500 bis 2000 [g/ha], 15 days after treatment
Protocol: as §1, §2, §3

Xanthium Sp. = assay: as above; conditions: 500 bis 2000 [g/ha], 15 days after treatment
Protocol: as §1, §2, §3

Avena fatua [21] = assay: as above; conditions: 500 bis 2000 [g/ha], 15 days after treatment
Protocol: as §1, §2, §3

Chrysanthe. leuc. [22] = assay: as above; conditions: 500 bis 2000 [g/ha], 15 days after treatment
Protocol: as §1, §2, §3

Solanum nigrum [23] = assay: as above; conditions: 500 bis 2000 [g/ha], 15 days after treatment
Protocol: as §1, §2, §3

Echinochloa crus galli [24] = assay: as above; conditions: 500 bis 2000 [g/ha], 15 days after treatment
Protocol: as §1, §2, §3

Stellaria [25] = assay: as above; conditions: 500 bis 2000 [g/ha], 15 days after treatment
Protocol: as §1, §2, §3

Lolium perenne [26] = assay: as above; conditions: 500 bis 2000 [g/ha], 15 days after treatment
Protocol: as §1, §2, §3

Galium aparine [27] = assay: as above; conditions: 500 bis 2000 [g/ha], 15 days after treatment
Protocol: as §1, §2, §3

Abutilon [28] = assay: as above; conditions: 500 bis 2000 [g/ha], 15 days after treatment
Protocol: as §1, §2, §3

Alopecurus myos. [29] = assay: as above; conditions: 500 bis 2000 [g/ha], 15 days after treatment
Protocol: as §1, §2, §3

Sorghum halep. [30] = assay: as above; conditions: 500 bis 2000 [g/ha], 15 days after treatment
Protocol: as §1, §2, §3

Amaranthus ret. [31] = assay: as above; conditions: 500 bis 2000 [g/ha], 15 days after treatment
Protocol: as §1, §2, §3

Bromus tectorum [32] = assay: as above; conditions: 500 bis 2000 [g/ha], 15 days after treatment
Protocol: as §1, §2, §3

For `CC1CCc2nc3c(cc2C1)C(=O)N1C(=O)C(C)(C(C)C)N=C31` (stereo not shown) [Verbindung 3.01, 2,8-Dimethyl-2-isopropyl-7,8,9,10-tetrahydro-3H,5H-imidazo[1',2':1,2]pyrrolo[3,4-b]chinolin-3,5-dion], the Herbizidwirkung (Chenopodium Sp. [1]) was “gute bis sehr gute Herbizidwirkung (Boniturnoten von 1 bis 4 (insbesondere von 1 bis 3) weisen auf eine gute bis sehr gute Herbizidwirkung hin)”, the Herbizidwirkung (Digitaria sang. [2]) was “gute bis sehr gute Herbizidwirkung (Boniturnoten von 1 bis 4 (insbesondere von 1 bis 3) weisen auf eine gute bis sehr gute Herbizidwirkung hin)” and the Herbizidwirkung (Sinapis [3]) was “gute bis sehr gute Herbizidwirkung (Boniturnoten von 1 bis 4 (insbesondere von 1 bis 3) weisen auf eine gute bis sehr gute Herbizidwirkung hin)”. The Herbizidwirkung (Ipomoea) was “gute bis sehr gute Herbizidwirkung (Boniturnoten von 1 bis 4 (insbesondere von 1 bis 3) weisen auf eine gute bis sehr gute Herbizidwirkung hin)”, the Herbizidwirkung (Veronica Sp. [4]) was “gute bis sehr gute Herbizidwirkung (Boniturnoten von 1 bis 4 (insbesondere von 1 bis 3) weisen auf eine gute bis sehr gute Herbizidwirkung hin)” and the Herbizidwirkung (Avena fatua [5]) was “gute bis sehr gute Herbizidwirkung (Boniturnoten von 1 bis 4 (insbesondere von 1 bis 3) weisen auf eine gute bis sehr gute Herbizidwirkung hin)”. The Herbizidwirkung (Chrysanthe. leuc. [6]) was “gute bis sehr gute Herbizidwirkung (Boniturnoten von 1 bis 4 (insbesondere von 1 bis 3) weisen auf eine gute bis sehr gute Herbizidwirkung hin)”, the Herbizidwirkung (Solanum nigrum [7]) was “gute bis sehr gute Herbizidwirkung (Boniturnoten von 1 bis 4 (insbesondere von 1 bis 3) weisen auf eine gute bis sehr gute Herbizidwirkung hin)” and the Herbizidwirkung (Echinochloa crus galli [8]) was “gute bis sehr gute Herbizidwirkung (Boniturnoten von 1 bis 4 (insbesondere von 1 bis 3) weisen auf eine gute bis sehr gute Herbizidwirkung hin)”. For the same compound, the Herbizidwirkung (Stellaria [9]) was “gute bis sehr gute Herbizidwirkung (Boniturnoten von 1 bis 4 (insbesondere von 1 bis 3) weisen auf eine gute bis sehr gute Herbizidwirkung hin)”, the Herbizidwirkung (Lolium perenne [10]) was “gute bis sehr gute Herbizidwirkung (Boniturnoten von 1 bis 4 (insbesondere von 1 bis 3) weisen auf eine gute bis sehr gute Herbizidwirkung hin)” and the Herbizidwirkung (Galium aparine [11]) was “gute bis sehr gute Herbizidwirkung (Boniturnoten von 1 bis 4 (insbesondere von 1 bis 3) weisen auf eine gute bis sehr gute Herbizidwirkung hin)”. The Herbizidwirkung (Abutilon [12]) was “gute bis sehr gute Herbizidwirkung (Boniturnoten von 1 bis 4 (insbesondere von 1 bis 3) weisen auf eine gute bis sehr gute Herbizidwirkung hin)”, the Herbizidwirkung (Alopecurus myos. [13]) was “gute bis sehr gute Herbizidwirkung (Boniturnoten von 1 bis 4 (insbesondere von 1 bis 3) weisen auf eine gute bis sehr gute Herbizidwirkung hin)” and the Herbizidwirkung (Sorghum halep. [14]) was “gute bis sehr gute Herbizidwirkung (Boniturnoten von 1 bis 4 (insbesondere von 1 bis 3) weisen auf eine gute bis sehr gute Herbizidwirkung hin)”. For the same compound, the Herbizidwirkung (Amaranthus ret. [15]) was “gute bis sehr gute Herbizidwirkung (Boniturnoten von 1 bis 4 (insbesondere von 1 bis 3) weisen auf eine gute bis sehr gute Herbizidwirkung hin)”, the Herbizidwirkung (Bromus tectorum [16]) was “gute bis sehr gute Herbizidwirkung (Boniturnoten von 1 bis 4 (insbesondere von 1 bis 3) weisen auf eine gute bis sehr gute Herbizidwirkung hin)” and the Herbizidwirkung (Chenopodium Sp. [17]) was “gute bis sehr gute Herbizidwirkung (Boniturnoten von 1 bis 4 (insbesondere von 1 bis 3) weisen auf eine gute bis sehr gute Herbizidwirkung hin)”. For the same compound, the Herbizidwirkung (Digitaria sang. [18]) was “gute bis sehr gute Herbizidwirkung (Boniturnoten von 1 bis 4 (insbesondere von 1 bis 3) weisen auf eine gute bis sehr gute Herbizidwirkung hin)”, the Herbizidwirkung (Sinapis [19]) was “gute bis sehr gute Herbizidwirkung (Boniturnoten von 1 bis 4 (insbesondere von 1 bis 3) weisen auf eine gute bis sehr gute Herbizidwirkung hin)” and the Herbizidwirkung (Veronica Sp. [20]) was “gute bis sehr gute Herbizidwirkung (Boniturnoten von 1 bis 4 (insbesondere von 1 bis 3) weisen auf eine gute bis sehr gute Herbizidwirkung hin)”. The Herbizidwirkung (Xanthium Sp.) was “gute bis sehr gute Herbizidwirkung (Boniturnoten von 1 bis 4 (insbesondere von 1 bis 3) weisen auf eine gute bis sehr gute Herbizidwirkung hin)”, the Herbizidwirkung (Avena fatua [21]) was “gute bis sehr gute Herbizidwirkung (Boniturnoten von 1 bis 4 (insbesondere von 1 bis 3) weisen auf eine gute bis sehr gute Herbizidwirkung hin)” and the Herbizidwirkung (Chrysanthe. leuc. [22]) was “gute bis sehr gute Herbizidwirkung (Boniturnoten von 1 bis 4 (insbesondere von 1 bis 3) weisen auf eine gute bis sehr gute Herbizidwirkung hin)”. The Herbizidwirkung (Solanum nigrum [23]) was “gute bis sehr gute Herbizidwirkung (Boniturnoten von 1 bis 4 (insbesondere von 1 bis 3) weisen auf eine gute bis sehr gute Herbizidwirkung hin)”, the Herbizidwirkung (Echinochloa crus galli [24]) was “gute bis sehr gute Herbizidwirkung (Boniturnoten von 1 bis 4 (insbesondere von 1 bis 3) weisen auf eine gute bis sehr gute Herbizidwirkung hin)” and the Herbizidwirkung (Stellaria [25]) was “gute bis sehr gute Herbizidwirkung (Boniturnoten von 1 bis 4 (insbesondere von 1 bis 3) weisen auf eine gute bis sehr gute Herbizidwirkung hin)”. For the same compound, the Herbizidwirkung (Lolium perenne [26]) was “gute bis sehr gute Herbizidwirkung (Boniturnoten von 1 bis 4 (insbesondere von 1 bis 3) weisen auf eine gute bis sehr gute Herbizidwirkung hin)”, the Herbizidwirkung (Galium aparine [27]) was “gute bis sehr gute Herbizidwirkung (Boniturnoten von 1 bis 4 (insbesondere von 1 bis 3) weisen auf eine gute bis sehr gute Herbizidwirkung hin)” and the Herbizidwirkung (Abutilon [28]) was “gute bis sehr gute Herbizidwirkung (Boniturnoten von 1 bis 4 (insbesondere von 1 bis 3) weisen auf eine gute bis sehr gute Herbizidwirkung hin)”. The Herbizidwirkung (Alopecurus myos. [29]) was “gute bis sehr gute Herbizidwirkung (Boniturnoten von 1 bis 4 (insbesondere von 1 bis 3) weisen auf eine gute bis sehr gute Herbizidwirkung hin)”, the Herbizidwirkung (Sorghum halep. [30]) was “gute bis sehr gute Herbizidwirkung (Boniturnoten von 1 bis 4 (insbesondere von 1 bis 3) weisen auf eine gute bis sehr gute Herbizidwirkung hin)” and the Herbizidwirkung (Amaranthus ret. [31]) was “gute bis sehr gute Herbizidwirkung (Boniturnoten von 1 bis 4 (insbesondere von 1 bis 3) weisen auf eine gute bis sehr gute Herbizidwirkung hin)”. For the same compound, the Herbizidwirkung (Bromus tectorum [32]) was “gute bis sehr gute Herbizidwirkung (Boniturnoten von 1 bis 4 (insbesondere von 1 bis 3) weisen auf eine gute bis sehr gute Herbizidwirkung hin)”.
